Measurements: publication PMC6839570

Experiment: Thioether (C-S) macrocyclisation: SN2' of the free C-terminal Cys-NH2 thiol on an N-terminal O-acetyl Morita-Baylis-Hillman (2-methylene-3-acetoxyacyl) residue, Et3N 3% v/v, 48 h; crude cleaved linear peptides
Conditions: the molecule shown is the open-chain precursor, 16-membered ring, dry THF/CH2Cl2 1:1, 1.0 mM, 25.0 °C, 11 steps

Compared with `C=C(C(=O)N[C@@H](Cc1ccccc1)C(=O)N[C@H](CC(C)C)C(=O)N[C@H](C)C(=O)N[C@@H](CS)C(N)=O)C(CCCCCC)OC(C)=O` (stereo partly drawn) [n-C6H13CH(OAc)C(=CH2)CO-Phe-D-Leu-D-Ala-Cys-NH2], `C=C(C(=O)N[C@@H](Cc1ccccc1)C(=O)N[C@@H](CC(C)C)C(=O)N[C@H](C)C(=O)N[C@@H](CS)C(N)=O)C(CCCCCC)OC(C)=O` (stereo partly drawn) [n-C6H13CH(OAc)C(=CH2)CO-Phe-Leu-D-Ala-Cys-NH2] is lower in ring closure, overall yield: 11.8% for the first, 4.7% for the second.

Compared with `C=C(C(=O)N[C@@H](C)C(=O)N[C@@H](CC(C)C)C(=O)N[C@@H](Cc1ccccc1)C(=O)N[C@@H](CS)C(N)=O)C(C)OC(C)=O` (stereo partly drawn) [CH3CH(OAc)C(=CH2)CO-Ala-Leu-Phe-Cys-NH2], `C=C(C(=O)N[C@@H](Cc1ccccc1)C(=O)N[C@H](CC(C)C)C(=O)N[C@H](C)C(=O)N[C@@H](CS)C(N)=O)C(C)OC(C)=O` (stereo partly drawn) [CH3CH(OAc)C(=CH2)CO-Phe-D-Leu-D-Ala-Cys-NH2] is lower in ring closure, overall yield: 14.8% for the first, 7.3% for the second.

First: C=C(C(=O)N[C@@H](Cc1ccccc1)C(=O)N[C@H](CC(C)C)C(=O)N[C@@H](C)C(=O)N[C@@H](CS)C(N)=O)C(C)OC(C)=O (stereo partly drawn) [CH3CH(OAc)C(=CH2)CO-Phe-D-Leu-Ala-Cys-NH2]
Second: C=C(C(=O)N[C@@H](Cc1ccccc1)C(=O)N[C@@H](CC(C)C)C(=O)N[C@@H](C)C(=O)N[C@@H](CS)C(N)=O)C(C)OC(C)=O (stereo partly drawn) [CH3CH(OAc)C(=CH2)CO-Phe-Leu-Ala-Cys-NH2]
The ring closure, overall yield of the first is higher: 14.4% for the first, 10.2% for the second.

`C=C(C(=O)N[C@@H](Cc1ccccc1)C(=O)N[C@@H](CC(C)C)C(=O)N[C@H](C)C(=O)N[C@@H](CS)C(N)=O)C(C)OC(C)=O` (stereo partly drawn) [CH3CH(OAc)C(=CH2)CO-Phe-Leu-D-Ala-Cys-NH2] gave a ring closure, overall yield of 2.7%.
